Measurements from ChEMBL document CHEMBL1201862, “PubChem BioAssay data set” (2004).
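Compound exposure: 48 hours, 5 concentrations, 96-well plates. The concentration for 50% growth inhibition is given as GI50.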 The source made the active and inactive calls. Cut-off read from the data, not from the text of the source: active = GI50 up to about 1.1 µM and inactive = higher.

Columns and labels:
Test in all cases: NCI-60 cell line screen, 48 h
OVCAR-4 = tested on: OVCAR-4
HCT-15 = tested on: HCT-15
SW-620 = tested on: SW-620
SNB-19 = tested on: SNB-19
HCT-116 = tested on: HCT-116
HL-60 = tested on: HL-60
786-0 = tested on: 786-0
TK-10 = tested on: TK-10
HOP-92 = tested on: HOP-92
CAKI-1 = tested on: CAKI-1
SNB-75 = tested on: SNB-75
COLO 205 = tested on: COLO 205
EKVX = tested on: EKVX
SR = tested on: SR
LXFL 529 = tested on: LXFL 529
M19-MEL = tested on: M19-MEL
A549 = tested on: A549
DMS-273 = tested on: DMS-273
HOP-18 = tested on: HOP-18
UACC-257 = tested on: UACC-257
RXF 393 = tested on: RXF 393
SN12C = tested on: SN12C
LOX IMVI = tested on: LOX IMVI
KM12 = tested on: KM12
SF-295 = tested on: SF-295
SK-OV-3 = tested on: SK-OV-3
MOLT-4 = tested on: MOLT-4
UACC-62 = tested on: UACC-62
ACHN = tested on: ACHN
K562 = tested on: K562
SK-MEL-2 = tested on: SK-MEL-2
DMS-114 = tested on: DMS-114
SNB-78 = tested on: SNB-78
NCI-H460 = tested on: NCI-H460
A498 = tested on: A498
HOP-62 = tested on: HOP-62
RPMI-8226 = tested on: RPMI-8226
OVCAR-8 = tested on: OVCAR-8
SF-539 = tested on: SF-539
NCI-H226 = tested on: NCI-H226
IGROV-1 = tested on: IGROV-1
HCC 2998 = tested on: HCC 2998
M14 = tested on: M14
NCI-H522 = tested on: NCI-H522
NCI-H23 = tested on: NCI-H23
SK-MEL-5 = tested on: SK-MEL-5
CCRF-CEM = tested on: CCRF-CEM
UO-31 = tested on: UO-31
DLD-1 = tested on: DLD-1
U-251 = tested on: U-251
SK-MEL-28 = tested on: SK-MEL-28
KM-20L2 = tested on: KM-20L2
HT-29 = tested on: HT-29
OVCAR-5 = tested on: OVCAR-5
SF-268 = tested on: SF-268
NCI/ADR-RES = tested on: NCI/ADR-RES
OVCAR-3 = tested on: OVCAR-3
MCF7 = tested on: MCF7

With `CCN(CC)CCC(=O)Nc1ccc2c(c1)C(=O)c1ccc(NC(=O)CCN(CC)CC)cc1C2=O` the GI50 (OVCAR-4) was 4.63 µM (inactive), the GI50 (HCT-15) was 2.97 µM and the GI50 (SW-620) was 2.24 µM (inactive). For the same compound, the GI50 (SNB-19) was 5.48 µM (inactive), the GI50 (HCT-116) was 2.19 µM (inactive) and the GI50 (HL-60) was 4.23 µM (inactive). For the same compound, the GI50 (786-0) was 2.15 µM (inactive), the GI50 (TK-10) was 5.01 µM (inactive) and the GI50 (HOP-92) was 12.8 µM (inactive). The GI50 (CAKI-1) was 4.43 µM (inactive), the GI50 (SNB-75) was 14.2 µM (inactive) and the GI50 (COLO 205) was 3.28 µM (inactive). The GI50 (EKVX) was 3.25 µM (inactive), the GI50 (SR) was 3.37 µM (inactive) and the GI50 (LXFL 529) was 3.11 µM (inactive). The GI50 (M19-MEL) was > 100 µM (inactive), the GI50 (A549) was 5.18 µM (inactive) and the GI50 (DMS-273) was 1.19 µM (inactive). For the same compound, the GI50 (HOP-18) was 0.475 µM (active), the GI50 (UACC-257) was 14.8 µM (inactive) and the GI50 (RXF 393) was 2.11 µM (inactive). The GI50 (SN12C) was 2.84 µM (inactive), the GI50 (LOX IMVI) was 2.19 µM (inactive) and the GI50 (KM12) was 1.81 µM (inactive). The GI50 (SF-295) was 11.3 µM (inactive), the GI50 (SK-OV-3) was 9.73 µM (inactive) and the GI50 (MOLT-4) was 2.07 µM (inactive). For the same compound, the GI50 (UACC-62) was 10.4 µM (inactive), the GI50 (ACHN) was 4.07 µM (inactive) and the GI50 (K562) was 3.29 µM (inactive). The GI50 (SK-MEL-2) was 4.79 µM (inactive), the GI50 (DMS-114) was 3.21 µM (inactive) and the GI50 (SNB-78) was 5.96 µM (inactive). For the same compound, the GI50 (NCI-H460) was 1.38 µM (inactive), the GI50 (A498) was 5.79 µM (inactive) and the GI50 (HOP-62) was 5.37 µM (inactive). For the same compound, the GI50 (RPMI-8226) was 4.17 µM (inactive), the GI50 (OVCAR-8) was 4.16 µM (inactive) and the GI50 (SF-539) was 3.51 µM (inactive). For the same compound, the GI50 (NCI-H226) was 0.308 µM (active), the GI50 (IGROV-1) was 4.06 µM (inactive) and the GI50 (HCC 2998) was > 100 µM (inactive). The GI50 (M14) was 13.8 µM (inactive), the GI50 (NCI-H522) was 11.2 µM (inactive) and the GI50 (NCI-H23) was 8.2 µM (inactive). The GI50 (SK-MEL-5) was 7.08 µM (inactive), the GI50 (CCRF-CEM) was 3.55 µM (inactive) and the GI50 (UO-31) was 84.1 µM (inactive). The GI50 (DLD-1) was 1.81 µM (inactive), the GI50 (U-251) was 9.18 µM (inactive) and the GI50 (SK-MEL-28) was 12.2 µM (inactive). The GI50 (KM-20L2) was 14.6 µM (inactive), the GI50 (HT-29) was 2.59 µM (inactive) and the GI50 (OVCAR-5) was 11.2 µM (inactive). The GI50 (SF-268) was 5.62 µM (inactive).
For `Nc1nc(O)c2ncn(C3OC(CO)C(O)C3O)c2n1` (centres undefined), the GI50 (OVCAR-4) was 15.9 µM (inactive), the GI50 (SW-620) was 76.7 µM (inactive) and the GI50 (HCT-116) was 68.1 µM (inactive). The GI50 (HL-60) was 37.6 µM (inactive), the GI50 (NCI/ADR-RES) was 18.4 µM (inactive) and the GI50 (CAKI-1) was 77.1 µM (inactive). The GI50 (SNB-75) was 15.4 µM (inactive), the GI50 (COLO 205) was 57 µM (inactive) and the GI50 (OVCAR-3) was 23.2 µM (inactive). The GI50 (EKVX) was 10.2 µM (inactive), the GI50 (M19-MEL) was 16 µM (inactive) and the GI50 (DMS-273) was 58.7 µM (inactive). The GI50 (HOP-18) was 49.8 µM (inactive), the GI50 (RXF 393) was 6.84 µM (inactive) and the GI50 (SN12C) was 79.8 µM (inactive). For the same compound, the GI50 (LOX IMVI) was 52.5 µM (inactive), the GI50 (KM12) was 80 µM (inactive) and the GI50 (SF-295) was 71.6 µM (inactive). The GI50 (SK-OV-3) was 95.7 µM (inactive), the GI50 (MOLT-4) was 48.2 µM (inactive) and the GI50 (UACC-62) was 13.3 µM (inactive). The GI50 (K562) was 81.7 µM (inactive), the GI50 (SK-MEL-2) was 71.1 µM (inactive) and the GI50 (DMS-114) was 6.15 µM (inactive). The GI50 (SNB-78) was 95.3 µM (inactive), the GI50 (A498) was 3.81 µM (inactive) and the GI50 (HOP-62) was 8.63 µM (inactive). For the same compound, the GI50 (SF-539) was 13.8 µM (inactive), the GI50 (NCI-H226) was 72.6 µM (inactive) and the GI50 (IGROV-1) was > 77.4 µM (inactive). For the same compound, the GI50 (HCC 2998) was 17.1 µM (inactive), the GI50 (NCI-H522) was 41.9 µM (inactive) and the GI50 (NCI-H23) was 17.4 µM (inactive). For the same compound, the GI50 (SK-MEL-5) was 53.6 µM (inactive), the GI50 (CCRF-CEM) was 23.9 µM (inactive) and the GI50 (MCF7) was 33.8 µM (inactive). The GI50 (UO-31) was 63.7 µM (inactive), the GI50 (DLD-1) was 65.3 µM (inactive) and the GI50 (U-251) was 16.1 µM (inactive). For the same compound, the GI50 (SK-MEL-28) was 90.8 µM (inactive), the GI50 (KM-20L2) was 16.8 µM (inactive) and the GI50 (HT-29) was 10.9 µM (inactive). For the same compound, the GI50 (OVCAR-5) was 111 µM (inactive) and the GI50 (SF-268) was 74.8 µM (inactive).
